According to US9408828B2, “(+)-3′-angeloyloxy-4′-keto-3′,4′-dihydroseselin for treating inflammation” (Hong Kong Baptist University, priority 2014, dated 2016):
In brackets after ≈: the same amount, converted by molar mass.

Legend:
NF-κB = assay: Anti-inflammatory bioassay (Quanti-Blue assay), SEAP activity; format: cell-based, murine; conditions: Mus musculus, Macrophage; LPS-stimulated macrophages; read-out: IC50, inhibition of SEAP activity
Method: RAW-Blue cells (5×10^4) are cultured in 96-well plate for 24 hours, and then treated with LPS (1 μg/mL) alone or together with test samples for 20 hours. Secreted embryonic alkaline phosphatase (SEAP) activity in the conditioned medium is determined using QUANTI-Blue medium following manufacturer's manual. Briefly, 100 μL samples are added to 200 μL of QUANTI-Blue medium and incubated at 37° C. for 15 to 30 minutes. Absorbance is measured at 620 nm using a micro-plate reader (Benchmark plus Bio-Red, CA, USA) and fold change in SEAP activity is calculated accordingly.
Raw-Blue cells are derived from RAW264.7 macrophages. Then the murine macrophage cell line of Raw-Blue cells is cultured in plastic dishes containing DMEM supplemented with 100 U/mL of penicillin, 100 μg/mL of streptomycin and 10% FBS in an incubator (5% CO2) at 37° C. Cells are sub-cultured every 3 days at a dilution of 1:6.
The SEAP activity in the supernatants of LPS-stimulated RAW-Blue cells reflects the activation of NF-κB. The inhibition of the NF-κB activation can associate with mitigation of colon inflammation responses and apoptosis of intestinal epithelial cells in DSS mouse model. Western blotting and immunofluorescence analysis are performed to determine whether Pd-Ib depressed NF-κB activation. […]

IL-4 = assay: ELISA of IL-4 in colon tissue, DSS-induced colitis; format: in vivo, C57BL/6 mice; conditions: compared with the DSS treatment group; increase in IL-4
Method: Colon levels of cytokines are assayed using commercially available ELISA kits. Briefly, colon samples are homogenized in phosphate buffer containing 0.05% Tween-20, 0.1 mM phenylmethylsulfonyl fluoride, 0.1 mM benzethonium chloride, 10 mM EDTA, and 20 IU aprotinin A. The homogenates are centrifuged at 16000 g at 4° C. for 15 min, and the supernatants are collected for the determination of levels of the cytokines, IL-6, IL-4, TNF-α, and IFN-γ, according to the manufacturer's protocols. The amount of protein in each sample is measured by the Bradford method, using bovine serum albumin as a standard. The levels of each cytokine are evaluated in each sample and expressed in […].
Colitis is induced in all groups except the control group. Pd-Ib and sulfasalazine are administered to mice from day 6 to day 12. On day 13, the mice are sacrificed, Data are expressed as mean±SEM, n=8 (*p<0.05, **p<0.01, ***p<0.001, compared with DSS model group).

TNF-α = assay: Real-time PCR of TNF-α mRNA in LPS-stimulated RAW-Blue cells; format: cell-based, murine; conditions: LPS 1 μg/mL, 5, 10, 20 μg/mL, 20 hours
Method: After macrophages are treated with 1 μg/mL of LPS in absence or presence various concentrations of Pd-Ib (5, 10, 20 μg/mL) for 20 hours, the mRNA levels of iNOS (A), TNF-α (B) and IL-1β (C) are determined by real time PCR, while the production of NO (D) is determined by Griess reagent. Data are derived from three independent experiments and presented as mean±SEM, “con” stands for the vehicle control group. ^#Compared with control group. *P<0.05, **P<0.01 and ***P<0.001 are compared with LPS-alone group.
Raw-Blue cells are plated at 20×10^5 cells/well in 12-well plate. After 24 hours of incubation, cells are pretreated with various concentrations (5-20 μg/mL) of Pd-Ib for 2 hours, followed by co-culturing with LPS (1 μg/mL) for 20 hours. Total RNA of Raw-Blue cells is extracted by Trizol reagent. Two micrograms (2 μg) of total RNA are reverse-transcribed with RT master mix to obtain cDNA. Real-time PCR is performed in a ViiA7 real-time PCR instrument (Applied Biosystems, Life Technologies, CA, USA) with the SYBR Green kit. A melting curve analysis is carried out after amplification to verify the accuracy of the amplicon. The comparative cycle of threshold (ΔΔCT) method of relative quantification is used to determine the fold-change in expression. Primer sequences for mRNA analysis of IL-1β, TNF-α, iNOS and β-Actin are described in Table 1.

C/C=C(\C)C(=O)OC1C(=O)c2c(ccc3ccc(=O)oc23)OC1(C)C (single isomer, unassigned; (+)) [Pd-Ib, (+)-3′-Angeloyloxy-4′-keto-3′,4′-dihydroseselin]
IC50 (NF-κB): 22.5 µg/mL (≈ 65.8 µM)
production of IL-4 in colon tissue (IL-4): significant effect on the production of IL-4 in a dose-dependent manner
mRNA expression of TNF-α (TNF-α): inhibit the mRNA expressions of TNF-α and IL-1β in a dose-dependent manner
